≈ marks a conversion by molar mass, not a printed value.
Details: buffer; pH 7.4; 200.0 µM

Row | SMILES | solubility kinetic [µg/mL]
1 | COc1cc2c(cc1OC)C(COc1ccc(F)cc1)NCC2 (stereo unspecified) | 43.8 (≈ 138 µM)
2 | COc1cc2c(cc1OC)C(C)N(C(=O)Nc1ccccc1)CC2 (stereo unspecified) | 39 (≈ 119 µM)
3 | S=C(NCC1CCCO1)N1CCN(Cc2ccccc2Cl)CC1 (stereo unspecified) | > 53.1
4 | O=C(NCCNC1CCCCC1)c1ccco1 | 26.2 (≈ 111 µM)
5 | CNCc1ccccc1OCc1ccccc1F.Cl | > 42.3
6 | COS(=O)(=O)[O-].Cn1c(-c2ccc3ccccc3n2)[n+](C)c2ccccc21 | > 57.8
7 | Cc1noc(C)c1C(=O)Nc1nc2ccc(Cl)cc2s1 | 2.1 (≈ 6.82 µM)
8 | O=C(NCC(c1ccco1)N1CCc2ccccc2C1)c1cccc(F)c1 (stereo unspecified) | 28.7 (≈ 78.8 µM)
9 | Cc1cc(=O)[nH]c2ccc(S(=O)(=O)NC3CCCCC3)cc12 | 4.5 (≈ 14 µM)
10 | O=Nc1ccc(O)c2ncccc12 | > 26.1
11 | CCn1cc(CN(C)S(=O)(=O)c2cccc([N+](=O)[O-])c2)cn1 | > 48.7
12 | COc1ccc(Nc2cc(Nc3ccc(OC)cc3)ncn2)cc1 | < 0.2
13 | Cc1ccc(CNc2ccc(N3CCOCC3)c(Cl)c2)cc1 | 1.7 (≈ 5.37 µM)
14 | O=C(COC(=O)COc1ccccc1)Nc1ccc2c(c1)OCCO2 | 15.3 (≈ 44.6 µM)
15 | CC1CC2(C)CC(C)C1(COC(=O)Nc1ccccc1)CO2 (stereo unspecified) | 44.6 (≈ 147 µM)
16 | COc1ccc(NC(=O)Nc2ccc3c(c2)CCC3)c(OC)c1 | < 0.3
17 | CC(C)c1nc2oc3c(NCCO)ncnc3c2c2c1COC(C)(C)C2 | 48.9 (≈ 137 µM)
18 | NC(=O)c1c(/N=C/c2cccs2)sc2c1CCCC2 | 18.4 (≈ 63.4 µM)
19 | CC(C)N1C(=O)c2ccccc2N(Cc2ccccc2)S1(=O)=O | 5.7 (≈ 17.3 µM)
20 | CCCCC(=O)Nc1ccc(NC(=O)c2cnccn2)cn1 | > 44.9
21 | CN1CCN(C(=O)c2cc3sc4ccccc4c3s2)CC1 | > 47.5
22 | CCOc1ccc(NC(=O)Cc2c(C(=O)O)n(C)c3ccccc23)cc1 | > 52.9
23 | CC1(C)CC(=O)C=C(NCCc2ccccc2)C1 | 35.1 (≈ 144 µM)
24 | COc1cc(NC(=O)CN2C(=O)NC(CC(C)C)C2=O)cc(OC)c1OC (stereo unspecified) | > 56.9
25 | CCOC(=O)C1(C)Oc2ccc(S(=O)(=O)CC)cc2NC1=O (stereo unspecified) | 42.7 (≈ 130 µM)

Row | SMILES | solubility kinetic [µg/mL]
26 | CCNS(=O)(=O)c1ccc(CCC(=O)NCc2ccccn2)cc1 | > 52.1
27 | CCN1CCCC1CNC(=O)C(=O)NC(C)C (stereo unspecified) | > 36.2
28 | Cc1ncc([N+](=O)[O-])n1CC(=O)N/N=C/c1ccccc1F | > 45.8
29 | Cc1nc(CCNS(=O)(=O)c2cccnc2)cs1 | > 42.5
30 | O=C(O)c1cccnc1 | > 18.5
31 | Cc1ccc2ncnc(Oc3ncccc3[N+](=O)[O-])c2c1 | 34.7 (≈ 123 µM)
32 | CCOc1cccc(C(=O)NC(=S)Nc2ccc(Cl)cc2C(=O)O)c1 | 55.2 (≈ 146 µM)
33 | COc1ccc(C(=O)Cn2c(=O)oc3ccc(C)cc32)cc1 | < 0.6
34 | CCOc1ccc(S(=O)(=O)/N=C(/Nc2ccc(C)c(S(=O)(=O)N3CCOCC3)c2)c2ccccc2)cc1 | 7.9 (≈ 14.5 µM)
35 | Cc1cccc(C)c1NC(=O)CNC(=O)c1ccccc1 | 24.9 (≈ 88.2 µM)
36 | COc1ccccc1CN1CCN(S(=O)(=O)c2ccc(C)cc2)CC1 | 1 (≈ 2.77 µM)
37 | O=C(O)c1ccc2c(c1)CCCN2 | > 26.6
38 | CCCCCCC(=O)Nc1ccc(S(=O)(=O)Nc2onc(C)c2C)cc1 | > 56.9
39 | CSc1ccccc1NC(=O)c1ccccn1 | 29.8 (≈ 122 µM)
40 | O=C(COC(=O)C12CC3CC(CC(C3)C1)C2)Nc1ccc2[nH]c(=O)[nH]c2c1 | 1.3 (≈ 3.52 µM)
41 | COc1cc(/C(C)=N/N2CCOCC2)cc(OC)c1OC | > 44.2
42 | COc1ccccc1CNC(=O)COC(=O)c1ccccn1 | > 45
43 | Cc1ccccc1C1NC(=S)NC2=C1C(=O)CCC2 (stereo unspecified) | > 40.9
44 | CN1CCC(N(C)C(=O)Cc2ccccc2[N+](=O)[O-])CC1 | > 43.7
45 | CCCCCN1C=CC=C/C1=C\C=C(C#N)C#N | 6.9 (≈ 28.8 µM)
46 | COc1cc(OC)cc(C(=O)NCC(=O)OCC(=O)NCc2ccco2)c1 | > 56.5
47 | CC(=O)Nc1cccc(OCC(=O)Nc2sccc2C(N)=O)c1 | 4.9 (≈ 14.7 µM)
48 | O=C(CSc1nncs1)Nc1ccc2c(c1)OCO2 | > 44.3
49 | CC(C)NC(=O)COc1nncc2ccccc12 | > 36.8
50 | O=C(Nc1ccc(Cl)c(Cl)c1)c1ccc2c(c1)OCO2 | < 0.7

Row | SMILES | solubility kinetic [µg/mL]
51 | CN(C)c1ccc([N+](=O)[O-])cc1C(=O)NCC(c1ccco1)N(C)C (stereo unspecified) | 47.7 (≈ 138 µM)
52 | Cl.O=C(/C=C/c1cccc(F)c1)NCCCn1ccnc1 | > 46.5
53 | O=C(Nc1ccc(Br)cc1)c1cc(-c2ccncc2)nc2ccccc12 | 5.8 (≈ 14.3 µM)
54 | Cc1ccc(NC(=O)CNC(=O)c2cccc(C)c2)nc1 | > 42.5
55 | N/C(=N\OC(=O)Cc1cccs1)c1ccc(Cl)cc1 | 5.8 (≈ 19.7 µM)
56 | COc1ccc(CCN(C)c2ncnc3sccc23)cc1OC | > 49.4
57 | Cc1ccnc2nc(C(=O)OCC(=O)Nc3ccc4c(c3)OCCO4)nn12 | > 55.4
58 | COc1ccc(OC)c2c1sc(=NC(=O)C1CC1)n2C | 0.9 (≈ 3.08 µM)
59 | CC(Nc1ccc2c(c1)OCCO2)C(=O)Nc1ccc2c(c1)OCO2 (stereo unspecified) | > 51.4
60 | CN1CCN(C(=O)CCc2nc(-c3ccc(Cl)cc3)no2)CC1 | > 50.2
61 | OCc1nc2ccccc2n1Cc1ccc(Cl)cc1 | 28.4 (≈ 104 µM)
62 | COC(=O)c1ccc(NC(=S)N2CCN(C)CC2)cc1 | > 44
63 | COc1ccc(CCNC(=O)/C=C/c2ccco2)cc1 | 38.9 (≈ 143 µM)
64 | O=C1CC(=O)N(c2ccccc2)C(=O)N1c1ccccc1 | > 42
65 | N#Cc1c(-c2ccco2)ccn(Cc2cccc(F)c2)c1=O | 3.2 (≈ 10.9 µM)
66 | COc1ccc(Cn2cnc([N+](=O)[O-])c2)cc1[N+](=O)[O-] | > 41.7
67 | COc1cc(C)c(Cl)cc1S(=O)(=O)N1CCSC1 | 33 (≈ 107 µM)
68 | Cn1cc(C(=O)OCC(=O)NC2CCCC2)c2ccccc21 | 7.2 (≈ 24 µM)
69 | Cc1ccc(Nc2nnc(SC(C)C(=O)NCC3CCCO3)s2)cc1 (stereo unspecified) | > 56.8
70 | Cc1ccc(CNC(=O)c2ccc[nH]2)cc1 | > 32.1
71 | COC(=O)c1ccccc1NS(=O)(=O)c1c(C)noc1C | > 46.5
72 | Cc1ccc(-c2nnc(SCC(=O)NC3CCCC3)n2N)cc1 | > 49.7
73 | Cc1cc(C(=O)CCl)c(C)n1Cc1ccco1 | > 37.8
74 | COc1ccccc1NC(=S)NC1CCCCCCCCCCC1 | < 0.4
75 | O=c1[nH]c2ccccc2nc1-c1c[nH]c2ccccc12 | 0.2 (≈ 0.765 µM)

Row | SMILES | solubility kinetic [µg/mL]
76 | O=C(Cc1ccc(Cl)cc1Cl)Nc1ccncc1 | 31 (≈ 110 µM)
77 | COC(=O)CC(NC(=O)C1CC1)c1ccc2c(c1)OCO2 (stereo unspecified) | > 43.7
78 | Cc1cccc(NS(=O)(=O)c2ccc(Cl)cc2)n1 | 31.6 (≈ 112 µM)
79 | CN(C(=O)Nc1ccc(C(C)(C)C)cc1)C1CCCCC1 | < 0.3
80 | O=S(=O)(NCc1ccco1)c1ccc(Cl)s1 | > 41.7
81 | CCCOCCc1nnc(N)s1 | > 28.1
82 | COC(=O)c1ccc(CN2C(=O)NC(CC(C)C)C2=O)cc1 (stereo unspecified) | > 45.7
83 | COC(=O)c1ccc(OCC(=O)N2CCCc3ccccc32)cc1 | 45 (≈ 138 µM)
84 | CC(C)N(C(=O)Cn1cc(SCC(N)=O)c2ccccc21)C(C)C | > 52.1
85 | CCOP(=O)(Cc1ccc(C#N)o1)OCC | > 36.5
86 | CC(CNC(=O)c1ccc(N)cc1)NC(=O)c1ccc(N)cc1 (stereo unspecified) | 42.8 (≈ 137 µM)
87 | N/C(=N\OC(=O)CSc1ccccc1)c1ccccn1 | > 43.1
88 | O=c1c(Cc2ccc(Cl)cc2Cl)c(O)ccn1Cc1ccncc1 | > 54.2
89 | COc1cc(NC(=O)Cc2ccccc2)ccc1NC(=O)c1ccccc1 | < 0.4
90 | CC(C)(C)C(=O)Nc1sc(-c2ccccc2)cc1C(=O)O | > 45.5
91 | Cc1cc(=O)[nH]c(SCCc2ccccc2)n1 | 26.5 (≈ 108 µM)
92 | O=C(N/N=C/c1ccccn1)c1cccnc1 | > 33.9
93 | COC(=O)c1sccc1NC(=O)c1ccc(C#N)cc1 | 1.8 (≈ 6.29 µM)
94 | O=[N+]([O-])c1ccc(Nc2nc(Cl)nc(NCCO)n2)cc1 | 2.6 (≈ 8.37 µM)
95 | O=C(Nc1cccc(S(=O)(=O)N2CCCC2)c1)c1ccco1 | > 48.1
96 | O=C(CN1CCCC1)NC(=O)NC1CCCC1 | > 35.9
97 | O=C(Nc1ccc(SC(F)F)cc1)c1ccc(F)cc1 | 1.3 (≈ 4.37 µM)
98 | Cc1ccc(C(=O)OCC(=O)NCC2CCCO2)c(C)c1 (stereo unspecified) | > 43.7
99 | O=C(Nc1ccc(S(=O)(=O)N2CCCCC2)cc1)C1CC1 | > 46.3
100 | O=C(CC1Sc2ccccc2NC1=O)NCc1ccccc1 (stereo unspecified) | 0.4 (≈ 1.28 µM)

Row | SMILES | solubility kinetic [µg/mL]
101 | COc1ccc(C(=O)NCCNc2ccc([N+](=O)[O-])cc2)cc1OC | 1.7 (≈ 4.92 µM)
102 | Cc1ccc(C(=O)N(CN2CCCC2=O)c2ccccc2)cc1 | > 46.3
103 | Cc1cccc(C(=O)Nc2ccc(NC(=O)c3ccccc3)cc2)c1 | 1 (≈ 3.03 µM)
104 | Cc1ccc(SCC(=O)c2ccc[nH]2)cc1 | 24.6 (≈ 106 µM)
105 | CN1CCC(N(C)C(=O)c2cc(S(=O)(=O)N3CCOCC3)ccc2Cl)CC1.Cl | > 67.9
106 | COc1ccc(OC)c(NC(=O)NC2CCCc3ccccc32)c1 (stereo unspecified) | 0.7 (≈ 2.14 µM)
107 | CC1CN(C(=O)c2cc3cc([N+](=O)[O-])ccc3oc2=O)CC(C)O1 (stereo unspecified) | 46.1 (≈ 139 µM)
108 | Cc1ccc(C(=O)Nc2cccc(NC(=O)CN3CCCCC3)c2)cc1 | 41.4 (≈ 118 µM)
109 | CC(C)n1c(COc2ccccc2)nc2ccccc21 | 24.1 (≈ 90.5 µM)
110 | CCOc1ccc(CNC(=O)c2ccco2)cc1 | > 36.8
111 | CCNC(=O)COC(=O)c1sccc1C | > 34.1
112 | CCOC(=O)c1sc(=NC(=O)c2ccc(C)cc2)n(C)c1C | < 0.3
113 | Fc1ccc(C2c3cccn3CCN2C(=S)Nc2cccc(F)c2)cc1 (stereo unspecified) | 5.1 (≈ 13.8 µM)
114 | O=C(c1ccccc1F)N1CCN(C(=O)C2CC2)CC1 | > 41.4
115 | Cn1cccc/c1=N\c1cccc[n+]1C.[I-] | > 49.1
116 | C/C(=N\NC(=O)c1cccnc1)c1cccc([N+](=O)[O-])c1 | > 42.6
117 | O=C(/C=C/c1ccco1)Nc1ccc2nc3n(c(=O)c2c1)CCCC3 | 3.7 (≈ 11 µM)
118 | O=c1ccc2c([nH]1)CCCCCCCCCC2 | 5.2 (≈ 22.3 µM)
119 | CCOCCCn1c(=NC(C)=O)c(C#N)cc2c(=O)n3ccccc3nc21 | > 54.8
120 | O=[N+]([O-])c1ccc(N=Cc2c(O)ccc3ccccc23)cc1 | 30.5 (≈ 104 µM)
121 | Cc1cc(C(=O)NCC(=O)Nc2c(C)cccc2C)c(C)o1 | 23.8 (≈ 79.2 µM)

— PubChem BioAssay AID1996
